# Data: patent US6953789B2, “Thiol compounds, their production and use” (Takeda Chemical Industries, Ltd., priority 1998, dated 2005)
# Target: T1, recombinant human MMP-13 (Homo sapiens, UniProt P45452)
# T1 construct: made in house; host or cells: baculovirus (pBlueBac4 / Bac-N-Blue; virus made in Sf9), expressed in High-Five insect cells; culture supernatant used
# Assay: Assay of MMP-13 inhibiting activity (fluorogenic peptide substrate)
# Format: biochemical
# Settings: Table 1; 37° C., 2 hours
# Excerpt: Based on the sequence described in the literature by Freije, J. M. et al (Journal of Biological Chemistry, 269: 16766-16773, 1994) and using a PCR method known per se, a human MMP-13 cDNA was obtained.
# A pBlueBac4 (Invitrogen) and a Baculovirus vector Bac-N-Blue (Invitrogen) to each of which the human MMP-13 cDNA obtained above was integrated were co-transfected to an Sf9 cell to obtain a MMP-13-expressing recombinant virus.
# The recombinant virus thus obtained was infected to a High-Five cell (Invitrogen), and the culture supernatant after three days was employed as an enzyme solution. Experiment 2 Assay of MMP-13 inhibiting activity
# 75 μl of a sample containing the recombinant human MMP-13, 200 mM sodium chloride, 20 mM calcium chloride, 0.1% Brij 35, 1 mM 2-mercaptoethanol, 200 mM tris-HCl buffer solution (pH7.5) and a test substance at various concentrations was treated with 25 μl of 40 μM MOCAc-Pro-Leu-Gly-Leu-A2pr(DNP)-Ala-Arg-NH2 (PEPTIDE KENKYUSHO) to initiate a reaction and kept at 37° C. for 2 hours, and then 100 μl of 500 mM sodium acetate-HCl buffer solution (pH3.0) was added to terminate the reaction.
# The level of liberated MOCAc-Pro-Leu-Gly was determined using a fluorophotometer (MTP-32/F2: CORONA DENKI) at the excitation wavelength of 330 nm and the fluorescent wavelength of 405 nm. The fluorescent level of the reaction in the absence of a test substance was regarded as 100%, and the concentration of each test substance required for achieving 50% inhibition was indicated as IC50.
row,IC50,Compound
1,100 nM,"O=C1CC(SSCC2CCCO2)C(=O)N1Cc1ccc(Oc2ccccc2)cc1 (centres unmarked) [Example 11, 3-[(Tetrahydro-2-furanyl)methyldithio]-1-(4-phenoxybenzyl)pyrrolidine-2,5-dione]"
2,> 10000 nM,"O=C1CC(SCc2ccccc2)C(=O)N1Cc1ccc(Oc2ccccc2)cc1 (centres unmarked) [Example 4, 3-Benzylthio-1-(4-phenoxybenzyl)pyrrolidine-2,5-dione]"

# Same assay, conditions: Table 2; 37° C., 2 hours
row,IC50,Compound
1,50 nM,"CC(=O)SC1C(=O)N(Cc2ccc(Oc3ccccc3)cc2)C(=O)C1C (centres unmarked) [Example 7, 3-Acetylthio-4-methyl-1-(4-phenoxybenzyl)pyrrolidine-2,5-dione]"
2,1000 nM,"COC(=O)CCSC1C(=O)N(Cc2ccc(Oc3ccccc3)cc2)C(=O)C1O (centres unmarked) [Example 9, 3-Hydroxy-4-[2-(methoxycarbonyl)ethylthio]-1-(4-phenoxybenzyl)pyrrolidine-2,5-dione]"

# Same assay, conditions: Table 3; 37° C., 2 hours
row,IC50,Compound
1,3000 nM,"CC(C)(C)C(=O)NCS[C@@H]1CC(=O)N(Cc2ccc(Oc3ccccc3)cc2)C1 [Example 101, 2,2-Dimethyl-N-({[(3R)-5-oxo-1-(4-phenoxybenzyl)pyrrolidinyl]sulfanyl}methyl)propanamide]"
2,2000 nM,"CC(=O)NCS[C@@H]1CC(=O)N(Cc2ccc(Oc3ccccc3)cc2)C1 [Example 100, N-({[(3R)-5-Oxo-1-(4-phenoxybenzyl)pyrrolidinyl]sulfanyl}methyl)acetamide]"
3,0.65 nM,"NC(=O)S[C@@H]1CC(=O)N(Cc2ccc(Oc3ccccc3)cc2)C1 [Example 49, S-[(3R)-5-oxo-1-(4-phenoxybenzyl)pyrrolidinyl]thiocarbamate]"
4,5 nM,"O=C1CC(S)CN1Cc1ccc(Oc2ccccc2)cc1 (centres unmarked) [Example 17, 4-Mercapto-1-(4-phenoxybenzyl)pyrrolidin-2-one]"
5,1.3 nM,"CC(=O)NC(=O)S[C@@H]1CC(=O)N(Cc2ccc(Oc3ccccc3)cc2)C1 [Example 55, S-[(3R)-5-oxo-1-(4-phenoxybenzyl)pyrrolidinyl]acetylthiocarbamate]"
6,8 nM,"O=C(O)CCC(=O)S[C@@H]1CC(=O)N(Cc2ccc(Oc3ccccc3)cc2)C1 [Example 75, 4-Oxo-4-{[(3R)-5-oxo-1-(4-phenoxybenzyl)pyrrolidinyl]sulfanyl}butanoic acid]"
7,500 nM,O=C(O)c1ccccc1SS[C@@H]1CC(=O)N(Cc2ccc(Oc3ccccc3)cc2)C1 [Example 86]
8,11 nM,"CC(C)C(=O)S[C@@H]1CC(=O)N(Cc2ccc(Oc3ccccc3)cc2)C1 [Example 67, S-[(3R)-5-oxo-1-(4-phenoxybenzyl)pyrrolidinyl]2-methylpropanethioate]"
9,200 nM,"O=C1C[C@@H](SCN2C(=O)c3ccccc3C2=O)CN1Cc1ccc(Oc2ccccc2)cc1 [Example 104, 2-({[(3R)-5-oxo-1-(4-phenoxybenzyl)pyrrolidinyl]sulfanyl}methyl)-1H-isoindole-1,3-(2H)-dione]"
10,10 nM,"CC(=O)SC1CC(=O)N(Cc2ccc(Oc3ccccc3)cc2)C1 (centres unmarked) [Example 15, 4-Acetylthio-1-(4-phenoxybenzyl)pyrrolidin-2-one]"
11,0.7 nM,"CCOC(=O)CNC(=O)S[C@@H]1CC(=O)N(Cc2ccc(Oc3ccccc3)cc2)C1 [Example 58, Ethyl [({[(3R)-5-oxo-1-(4-phenoxybenzyl)pyrrolidinyl]sulfanyl}carbonyl)amino]acetate]"
12,2 nM,"O=C(SC1CC(=O)N(Cc2ccc(Oc3ccccc3)cc2)C1)C(c1ccccc1)c1ccccc1 (stereo not drawn) [Example 70, S-[5-oxo-1-(4-phenoxybenzyl)-3-pyrrolidinyl] 2,2-diphenylethanethioate]"

row,Compound,IC50
1,"O=C(Cc1ccc(Cl)cc1)SC1CC(=O)N(Cc2ccc(Oc3ccccc3)cc2)C1 (stereo not drawn) [Example 69, S-[5-oxo-1-(4-phenoxybenzyl)-3-pyrrolidinyl]-(4-chlorophenyl)ethanethioate]",20 nM
2,"CCCCC(=O)SC1CC(=O)N(Cc2ccc(Oc3ccccc3)cc2)C1 (stereo not drawn) [Example 66, S-[5-oxo-1-(4-phenoxybenzyl)-3-pyrrolidinyl]pentanethioate]",1 nM

# Same assay, conditions: Table 5; 37° C., 2 hours
row,IC50,Compound
1,10 nM,"CC(=O)SC1CC(=O)N(Cc2ccc(Oc3ccccc3)cc2)C1CO (stereo not drawn) [Example 20, Trans-4-acetylthio-5-hydroxymethyl-1-(4-phenoxybenzyl)pyrrolidin-2-one]"
2,25 nM,"O=C(NCCO)[C@H]1[C@H](S)CC(=O)N1Cc1ccc(Oc2ccccc2)cc1 (relative stereo) [Example 190, trans-5-(2-Hydroxyethyl)aminocarbonyl-4-mercapto-1-(4-phenoxybenzyl)pyrrolidin-2-one]"
3,50 nM,"C[C@H]1[C@@H](S)CC(=O)N1Cc1ccc(Oc2ccccc2)cc1 [Example 176, (4S,5S)-4-Mercapto-5-methyl-1-(4-phenoxybenzyl)pyrrolidin-2-one]"
4,120 nM,"CC(=O)S[C@@H]1CC(=O)N(Cc2ccc(Oc3ccccc3)cc2)[C@H]1C(=O)NCc1ccncc1 (relative stereo) [Example 191, trans-4-Acetylthio-5-(4-pyridylmethyl)aminocarbonyl-1-(4-phenoxybenzyl)pyrrolidin-2-one]"
5,9 nM,"CC(=O)S[C@@H]1CC(=O)N(Cc2ccc(Oc3ccccc3)cc2)[C@H]1CC(C)C (relative stereo) [Example 179, trans-4-Acetylthio-5-isobutyl-1-(4-phenoxybenzyl)pyrrolidin-2-one]"
6,100 nM,"CC(=O)S[C@H]1CC(=O)N(Cc2ccc(Oc3ccccc3)cc2)[C@H]1C [Example 175, (4S,5S)-4-Acetylthio-5-methyl-1-(4-phenoxybenzyl)pyrrolidin-2-one]"

# Same assay, conditions: Table 6; 37° C., 2 hours
row,IC50,Compound
1,6 nM,"CC1C(=O)N(Cc2ccc(Oc3ccccc3)cc2)CC1S (stereo not drawn) [Example 195, trans-4-Mercapto-3-methyl-1-(4-phenoxybenzyl)pyrrolidin-2-one]"
2,30 nM,"CC(=O)SC1CN(Cc2ccc(Oc3ccccc3)cc2)C(=O)C1C (stereo not drawn) [Example 194, trans-4-Acetylthio-3-methyl-1-(4-phenoxybenzyl)pyrrolidin-2-one]"

# Same assay, conditions: Table 9; 37° C., 2 hours
row,IC50,Compound
1,5 nM,"COc1ccc(Oc2ccc(CN3CC(S)CC3=O)cc2)cc1 (centres unmarked) [Example 37, 4-Mercapto-1-(4-(4′-methoxyphenoxy)benzyl)pyrrolidin-2-one]"
2,20 nM,"CC(=O)SC1CC(=O)N(Cc2ccc(Oc3ccc(F)c(F)c3)cc2)C1 (centres unmarked) [Example 121, 4-Acetylthio-1-[4-(3′,4′-difluorophenoxy)benzyl]pyrrolidin-2-one]"
3,10 nM,"CC(=O)SC1CC(=O)N(Cc2ccc(Oc3ccc(Br)cc3)cc2)C1 (centres unmarked) [Example 34, 4-Acetylthio-1-(4-(4′-bromophenoxy)benzyl)pyrrolidin-2-one]"
4,20 nM,"CCOc1ccc(Oc2ccc(CN3CC(SC(C)=O)CC3=O)cc2)cc1 (centres unmarked) [Example 138, 4-Acetylthio-1-[4-(4′-ethoxyphenoxy)benzyl]pyrrolidin-2-one]"
5,6 nM,"CC(=O)S[C@@H]1CC(=O)N(Cc2ccc(Oc3ccc(Br)cc3)cc2)C1 [Example 199, (R)-4-Acetylthio-1-[4-(4′-bromophenoxy)benzyl]pyrrolidin-2-one]"
6,1.3 nM,"CC(=O)Nc1ccc(Oc2ccc(CN3CC(S)CC3=O)cc2)cc1 (centres unmarked) [Example 145, 4-Mercapto-1-[4-(4′-acetoaminophenoxy)benzyl]pyrrolidin-2-one]"

# Same assay, conditions: Table 10; 37° C., 2 hours
row,Compound,IC50
1,"O=C1CC(S)CN1Cc1ccc(COc2ccccc2)cc1 (centres unmarked) [Example 164, 4-Mercapto-1-(4-phenoxymethylbenzyl)pyrrolidin-2-one]",80 nM
2,"CC(=O)SC1CC(=O)N(CCc2ccc(Oc3ccccc3)cc2)C1 (stereo not drawn) [Example 169, S-[5-Oxo-1-(4-phenoxyphenethyl)-3-pyrrolidinyl]ethanethioate]",7000 nM
3,"CC(=O)SC1CC(=O)N(C(=O)c2ccc(Oc3ccccc3)cc2)C1 (stereo not drawn) [Example 196, S-[5-Oxo-1-(4-phenoxybenzoyl)-3-pyrrolidinyl]ethanethioate]",> 10000 nM

# Same assay, conditions: Table 11; 37° C., 2 hours
row,IC50,Compound
1,12 nM,"CC(=O)S[C@@H]1CC(=O)N(Cc2ccc(Oc3ccc4c(c3)OCO4)cc2)C1 [Example 198, S-{(3R)-1-{4-(1,3-benzodioxol-5-yloxy)benzyl]-5-oxopyrrolidinyl}ethanethioate]"
2,100 nM,"O=C1CC(S)CN1Cc1ccc2oc3ccccc3c2c1 (centres unmarked) [Example 202, 4-Mercapto-1-(2-dibenzofuranmethyl)pyrrolidin-2-one]"
3,6 nM,"CC(=O)SC1CC(=O)N(Cc2ccc(Oc3ccsc3)cc2)C1 (centres unmarked) [Example 157, 4-Acetylthio-1-[4-(3′-thienyloxy)benzyl]pyrrolidin-2-one]"
4,300 nM,"CC(=O)SC1CC(=O)N(Cc2ccc3oc4ccccc4c3c2)C1 (centres unmarked) [Example 201, 4-Acetylthio-1-(2-dibenzofuranmethyl)pyrrolidin-2-one]"

# Same assay, conditions: Table 12; 37° C., 2 hours
row,Compound,IC50
1,"CC(=O)SC1CCC(=O)N(Cc2ccc(Oc3ccccc3)cc2)C1 (stereo not drawn) [Example 108, S-[6-Oxo-1-(4-phenoxybenzyl)-3-piperidinyl]ethanethioate]",300 nM

# Same assay, conditions: Table 13; 37° C., 2 hours
row,IC50,Compound
1,10 nM,"O=C(SC1CCC(=O)N(Cc2ccc(Oc3ccccc3)cc2)C1=O)c1ccccc1 (centres unmarked) [Example 44, 3-Benzoylthio-1-(4-phenoxybenzyl)piperidine-2,6-dione]"
